Holding throughout (type): physicochemical
A short description of series [1]: Solubility in different buffered solutions at 25° C. How it is done:
Solubilities of 1-(6-amino-3,5-difluoropyridin-2-yl)-8-chloro-6-fluoro-1,4-dihydro-7-(3-hydroxyazetidin-1-yl)-4-oxo-3-quinolinecarboxylic acid in different buffered solutions at 25° C. are shown in TABLE 1.

Series [2] in a line: Solubility in different base solutions at 25° C. (free acid). The note with it: for solubility: aqueous buffer. How it is done: Solubilities of 1-(6-amino-3,5-difluoropyridin-2-yl)-8-chloro-6-fluoro-1,4-dihydro-7-(3-hydroxyazetidin-1-yl)-4-oxo-3-quinolinecarboxylic acid in different base solutions at 25° C. are shown in TABLE 2.
Series [3] in a line: Solubility of the trihydrate salt in different base solutions at 25° C. How it is done: The solubility of D-glucitol, 1-deoxy-1-(methylamino)-, 1-(6-amino-3,5-difluoropyridin-2-yl)-8-chloro-6-fluoro-1,4-dihydro-7-(3-hydroxyazetidin-1-yl)-4-oxo-3-quinolinecarboxylate trihydrate (salt) in different base solutions at 25° C. is shown in TABLE 3.
Where [4] appears, read: 0.01M meglumine, final pH 9.00, 25° C.
Where [5] appears, read: 0.1M meglumine, final pH 9.83, 25° C.
The mark [6] stands for this setting: 1M meglumine, final pH 10.85, 25° C.

≈ marks a conversion by molar mass, not a printed value.

As usually defined, the solubility is the dissolved amount per volume that the medium holds. Take `Nc1nc(-n2cc(C(=O)O)c(=O)c3cc(F)c(N4CC(O)C4)c(Cl)c32)c(F)cc1F` [1-(6-amino-3,5-difluoropyridin-2-yl)-8-chloro-6-fluoro-1,4-dihydro-7-(3-hydroxyazetidin-1-yl)-4-oxo-3-quinolinecarboxylic acid]: the solubility in series [1] (0.1 HCl (printed 0.1 HC1), simulated gastric fluid, 0.1 HC1, final pH 0.8, 25° C.) was 3.26 µg/mL (≈ 0.0074 mM); in series [1] (aqueous buffer, 0.1M NaOH, final pH 8.4, 25° C.), 3400 µg/mL (≈ 7.71 mM); in series [1] (aqueous buffer, Phosphate Buffer 8.0, final pH 7.8, 25° C.), 651 µg/mL (≈ 1.48 mM); in series [1] (aqueous buffer, citrate buffer 4.0, final pH 4.2, 25° C.) it was 3.44 µg/mL (≈ 0.0078 mM); in series [1] (aqueous buffer, citrate buffer 5.0, final pH 5.1, 25° C.) it was 3.33 µg/mL (≈ 0.00756 mM); in series [1] (aqueous buffer, glycine buffer 9.0, final pH 8.2, 25° C.), 2490 µg/mL (≈ 5.65 mM). Also, the solubility was 66.8 µg/mL (≈ 0.152 mM) in series [1] (aqueous buffer, phosphate buffer 6.8, final pH 6.8, 25° C.); 283 µg/mL (≈ 0.642 mM) in series [1] (aqueous buffer, phosphate buffer 7.4, final pH 7.4, 25° C.); 867 µg/mL (≈ 1.97 mM) in series [1] (organic solvent or mixture, ethanol, 25° C.); 13 µg/mL (≈ 0.0295 mM) in series [1] (saline or isotonic, saline, final pH 5.8-5.9, 25° C.); 24400 µg/mL (≈ 55.4 mM) in series [2] (0.5M KOH); 11200 µg/mL (≈ 25.4 mM) in series [2] (1M L-arginine). In addition, the solubility in series [2] (1M NaOH) was found to be 8330 µg/mL (≈ 18.9 mM); in series [2] (1.0M TRIS), 5760 µg/mL (≈ 13.1 mM); in series [2] (1M ethanolamine) it was 24900 µg/mL (≈ 56.5 mM); in series [2] (1M meglumin), 32100 µg/mL (≈ 72.8 mM). In addition, the “Ksp (M^2)” value in series [2] (0.5M KOH) is listed as 1.69 × 10^−2 M^2; in series [2] (1M L-arginine), 4.81 × 10^−4 M^2; in series [2] (1M NaOH), 1.66 × 10^−2 M^2; in series [2] (1.0M TRIS), 1.619 × 10^−4 M^2; in series [2] (1M ethanolamine) it was 2.04 × 10^−3 M^2; in series [2] (1M meglumin), 2.81 × 10^−3 M^2. The “Swater” value in series [2] (0.5M KOH) is reported as 57.4 mg/mL; in series [2] (1M L-arginine) it was 9.67 mg/mL; in series [2] (1M NaOH) it was 56.8 mg/mL; in series [2] (1.0M TRIS), 4.8 mg/mL; in series [2] (1M ethanolamine), 19.9 mg/mL; in series [2] (1M meglumin) it was 23.6 mg/mL.

Regarding `CNC[C@H](O)[C@@H](O)[C@H](O)[C@H](O)CO.Nc1nc(-n2cc(C(=O)O)c(=O)c3cc(F)c(N4CC(O)C4)c(Cl)c32)c(F)cc1F.O.O.O` [D-glucitol, 1-deoxy-1-(methylamino)-, 1-(6-amino-3,5-difluoropyridin-2-yl)-8-chloro-6-fluoro-1,4-dihydro-7-(3-hydroxyazetidin-1-yl)-4-oxo-3-quinolinecarboxylate trihydrate (salt)], the “Ksp (M^2)” value in series [3] (setting [4]) is 4.71 × 10^−3 M^2; in series [3] (setting [5]) it was 4.16 × 10^−3 M^2; in series [3] (setting [6]) it was 3.34 × 10^−3 M^2; in series [3] (water, final pH 8.78, 25° C.) it was 5.00 × 10^−3 M^2. The “solubility” value in series [3] (setting [4]) is 32400 µg/mL; in series [3] (setting [5]), 32200 µg/mL; in series [3] (setting [6]), 30800 µg/mL; in series [3] (water, final pH 8.78, 25° C.), 33900 µg/mL.

The values are drawn from patent US10329276B2, “Salt and crystalline forms thereof of a drug” (AbbVie Inc., priority 2004, dated 2019).
